Several values for one entry are separate records, joined by “and”; a condition that tells them apart may be missing. Identical values can stand only once.
Legend:
leucaemia L1210 [1] = test: Antitumor effect at animals with leucaemia L1210, continual versus intermitent regimen (Example 6); assay type: in vivo, mice DBA2
[2] = tested on: mammal adenocarcinoma MC2111; test: Antitumor effect at animals with solid form of mammal adenocarcinoma MC2111 (Example 9); assay type: in vivo, mice DBA1; conditions: for Tumor mass (%) of control / Tumor mass, Arithm. mean: 5th-13 day, tumor size 14th day, mass from regression
[3] = tested on: ascitic form of Ehrlich tumor (ATE); test: Antitumor effect at animals with ascitic form of Ehrlich tumor (ATE) (Example 10); assay type: in vivo, mice ICR; conditions: for Survival (in % of control) / Survival time, Geom. mean / Tumor mass (%) of control / Tumor mass, Arithm. mean: 1st-9th day; for Tumor mass (%) of control / Tumor mass, Arithm. mean: dissection 10th day
Gardner lymphosarcoma = test: Antitumor effect at animals with solid form of Gardner lymphosarcoma (Example 8); assay type: in vivo, mice C3H; conditions: for Tumor mass (%) of control / Tumor mass, Arithm. mean: 5th day, tumors weighed 14th day
leucaemia L1210 [4] = test: Antitumor effect at animals with leucaemia L1210, continual regimen (Example 7); assay type: in vivo, mice DBA2; conditions: for Survival (in % of control) / Survival time, Geom. mean: 1th-9th day
leucaemia L1210 [5] = test: Antitumor effect at animals with leucaemia L1210, intermitent administration 3x (Example 5); assay type: in vivo, mice DBA2; conditions: for Survival (in % of control) / Survival time, Geom. mean: 1st, 5th and 9th day
leucaemia L1210 [6] = test: Antitumor effect at animals with leucaemia L1210, single administration (Example 4); assay type: in vivo, mice DBA2
[7] = tested on: ascitic form of Ehrlich tumor (ATE); test: Antitumor effect at animals with ascitic form of Ehrlich tumor (ATE) (Example 11);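 as to all read-outs here: half of each dose group killed on day 10, tumor mass taken as animal mass lost on ascites aspiration, ascitocrit by microhematocrit centrifuge, rest followed daily for survival versus reference group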; conditions: for Survival (in % of control) / Survival time, Geom. mean / Total ascitocrit (%) of control / Total ascitocrit (mass of cell fraction of a tumor), Arithm. mean / Tumor mass (%) of control / Tumor mass, Arithm. mean: 1th-9th day; for Total ascitocrit (%) of control / Total ascitocrit (mass of cell fraction of a tumor), Arithm. mean / Tumor mass (%) of control / Tumor mass, Arithm. mean: dissection 10th day
Procedure: After termination of application, one half of animals in each dosage group was destroyed at 10th day after inoculation in ether narcosis, the ascits were sucked out after laparotomy and the mass of a tumor at each of the animals was determined from the difference of mass before and after sucking out the ascit. Ascitocrit in ascitic liquor of single animals was determined on microhematocrit centrifuge in heparinized capillary tubes of 75 mm length. The value of “total ascitocrit”corresponding to a mass of cells in ascitic liquor has been determined from percentage of ascitocrit and mass of the tumor. Remaining animals were left for monitoring the survival time. In these animals, the survival time was monitored on daily basis. The dependence of the survival time value on the applied dose was evaluated in comparison with the reference group.
The single estimated time points as biological responses were evaluated by a test of equivalence of two mean values (Student's t-test). Geometric mean was calculated from single values of survival time, arithmetic means were calculated from single values of tumor mass and total ascitocrit. Difference between mean values was evaluated by a test of equivalence of two mean values (Student's t-test) under presumption of normal probability distribution of mass values as well as of total ascitocrit values and of logarithmic/normal distribution of temporal values, all under presumption of possible unknown disseminations. Those diferences in mean values, whose values of a test criterium exceeded the critical value at the 5% and 1% significance level were evaluated as statistically significant and highly statistically significant, respectively.
The optimum dosage has been calculated from values of survival time according to the proportional risk model of Cox (Carter et al., 1982). Parameters of Weinbull distribution and logarithmic transformation of introductory data were used for estimation of a basic and modified survival function from experimental data.

[8] = 9 mg/kg/day as printed, middle dose group between 36 and 9, p.o. 3x, 1,5,9th day
[9] = 9 mg/kg/day p.o. 3x, 1,5,9th day (lowest dose group)
[10] = 12 mg/kg/day p.o. 9x, 1-9th day
[11] = 36 mg/kg/day p.o. 3x, 1,5,9th day

## CC(=O)[O][Pt]([NH2])([Cl])([Cl])([NH]C1CCCCC1)[O]C(C)=O [LA-2, af-bis(acetato)-b-ammin-cd-dichloro-e-(cyclohexylamine)platinum (IV) complex]
Leucaemia L1210 [1]; 3 mg/kg/day p.o. 9x, 1-9th day
  Survival (in % of control): 162%
  Survival time, Geom. mean: 18.7 days
Leucaemia L1210 [1]; 6 mg/kg/day p.o. 9x, 1-9th day
  Survival (in % of control): 173%
  Survival time, Geom. mean: 20.0 days
Leucaemia L1210 [1]; [8]
  Survival (in % of control): 160%
  Survival time, Geom. mean: 18.6 days
Leucaemia L1210 [1]; [9]
  Survival (in % of control): 99%
  Survival time, Geom. mean: 11.4 days
Leucaemia L1210 [1]; [10]
  Survival (in % of control): 99%
  Survival time, Geom. mean: 11.5 days
Leucaemia L1210 [1]; [11]
  Survival (in % of control): 130%
  Survival time, Geom. mean: 15.1 days
Leucaemia L1210 [1]; LA-12 6 mg/kg p.o.×9, Platidiam 8 and 4 mg/kg s.c.×1, LA-2 any of the dosage groups
  Evaluation of antitumor effect (survival time versus control), in words: antitumor uneffective
[2]; 3 mg/kg/day p.o. 9x
  Tumor mass (%) of control: 86%
  Tumor mass, Arithm. mean: 4.00 g
[2]; 6 mg/kg/day p.o. 9x
  Tumor mass (%) of control: 83%
  Tumor mass, Arithm. mean: 3.86 g
[2]; 12 mg/kg/day p.o. 9x
  Tumor mass (%) of control: 77%
  Tumor mass, Arithm. mean: 3.59 g
[2]; mouse, in vivo
  Survival (in % of control): 100% and 115% and 113%
  Survival time, Geom. mean: 21.7 days and 24.9 days and 24.5 days
[2]; p.o.×9 12, 6, 3 mg/kg/day, Platidiam 8 and 4 mg/kg s.c. once
  Evaluation of antitumor effect, in words: No effect was observed
[3]; 3 mg/kg/day p.o. 9x
  Survival (in % of control): 161%
  Survival time, Geom. mean: 18.4 days
  Tumor mass (%) of control: 119%
  Tumor mass, Arithm. mean: 3.17 g
[3]; 6 mg/kg/day p.o. 9x
  Survival (in % of control): 156%
  Survival time, Geom. mean: 17.9 days
  Tumor mass (%) of control: 80%
  Tumor mass, Arithm. mean: 2.13 g
[3]; 12 mg/kg/day p.o. 9x
  Survival (in % of control): 110%
  Survival time, Geom. mean: 12.6 days
  Tumor mass (%) of control: 79%
  Tumor mass, Arithm. mean: 2.10 g
[3]; Tab. 7-2
  Significance of mean survival time increase in comparison with untreated control (p≦0.01), in words: do not
Gardner lymphosarcoma; 2 mg/kg p.o. 1x
  Tumor mass (%) of control: 90%
  Tumor mass, Arithm. mean: 5.61 g
Gardner lymphosarcoma; 8 mg/kg p.o. 1x
  Tumor mass (%) of control: 99%
  Tumor mass, Arithm. mean: 6.19 g
Gardner lymphosarcoma; 32 mg/kg p.o. 1x
  Tumor mass (%) of control: 103%
  Tumor mass, Arithm. mean: 6.44 g
Gardner lymphosarcoma; single p.o. 32, 8 and 2 mg/kg
  Effect on average mass of a tumor, in words: No effect has been observed
Leucaemia L1210 [4]; 3 mg/kg/day p.o. 9x
  Survival (in % of control): 214%
  Survival time, Geom. mean: 48.1 days
Leucaemia L1210 [4]; 3 mg/kg/day p.o.×9
  Increase of survival time value in comparison with the control group: 114%
Leucaemia L1210 [4]; 6 mg/kg/day p.o. 9x
  Survival (in % of control): 137%
  Survival time, Geom. mean: 30.8 days
Leucaemia L1210 [4]; 12 mg/kg/day p.o. 9x
  Survival (in % of control): 108%
  Survival time, Geom. mean: 24.4 days
Leucaemia L1210 [5]; 2 mg/kg/day p.o. 3x
  Survival (in % of control): >129%
  Survival time, Geom. mean: 20.2 days
Leucaemia L1210 [5]; 4 mg/kg/day p.o. 3x
  Survival (in % of control): 118%
  Survival time, Geom. mean: 18.5 days
Leucaemia L1210 [5]; 8 mg/kg/day p.o. 3x
  Survival (in % of control): <148%
  Survival time, Geom. mean: 23.2 days
Leucaemia L1210 [5]; intermitent oral administration 3x
  Optimum dose as calculated according to Carter: 10.96 mg/kg/day p.o.×3
Leucaemia L1210 [6]; 10 mg/kg (30 mg/m^2) single oral dose
  Effect at the single oral dose of 10 mg/kg for IP-L 1210, in words: no effect
Leucaemia L1210 [6]; mouse, in vivo
  Antitumor effect (survival time versus control), in words: No effect has been proven
  Survival (in % of control): 63% and 85% and 81% and 94% and 99%
  Survival time, Geom. mean: 8.0 days and 10.7 days and 10.3 days and 11.9 days and 12.5 days
[7]; 3 mg/kg/day p.o. 9x
  Survival (in % of control): 114%
  Survival time, Geom. mean: 10.1 days
  Total ascitocrit (%) of control: 108%
  Total ascitocrit (mass of cell fraction of a tumor), Arithm. mean: 0.74 g
  Tumor mass (%) of control: 90%
  Tumor mass, Arithm. mean: 3.53 g
[7]; 6 mg/kg/day p.o. 9x
  Survival time, Geom. mean: 13.2 days
  Total ascitocrit (%) of control: 100%
  Total ascitocrit (mass of cell fraction of a tumor), Arithm. mean: 0.69 g
  Tumor mass (%) of control: 59%
  Tumor mass, Arithm. mean: 2.32 g
[7]; 12 mg/kg/day p.o. 9x
  Survival (in % of control): 111%
  Survival time, Geom. mean: 9.9 days
  Total ascitocrit (%) of control: 95%
  Total ascitocrit (mass of cell fraction of a tumor), Arithm. mean: 0.65 g
  Tumor mass (%) of control: 70%
  Tumor mass, Arithm. mean: 2.74 g
[7]; p.o.×9, Platidiam 8 and 4 mg/kg s.c.×1, Tab. 8.1
  Evaluation of antitumor effect (survival time versus control), in words: didnot increase the survival time statistically significant

Reference: US6503943B1, “Platinum complex, its preparation and therapeutic application” (priority 1998, dated 2003)
